Laboratory results from patent US10669272B2, “Substituted naphthyridinone compounds useful as T cell activators” (BRISTOL-MYERS SQUIBB COMPANY, priority 2018, dated 2020).
Where two headings read alike, the source gives them in different places.

Experiments:
human DGKα = biological target: T1, human DGKα (Homo sapiens, UniProt P23743); assay: DGKα LIPGLO assay (extruded liposome substrate), in vitro DGK inhibition; format: biochemical; settings: read-out: DGKa LIPGLO IC50
T1 construct: TVMV protease cleavage site (C); Hexa-His (C); made in house; host or cells: Sf9 insect cells (baculovirus, Bac-to-Bac)
T1 sequence (P23743 with tags, fused parts or gaps): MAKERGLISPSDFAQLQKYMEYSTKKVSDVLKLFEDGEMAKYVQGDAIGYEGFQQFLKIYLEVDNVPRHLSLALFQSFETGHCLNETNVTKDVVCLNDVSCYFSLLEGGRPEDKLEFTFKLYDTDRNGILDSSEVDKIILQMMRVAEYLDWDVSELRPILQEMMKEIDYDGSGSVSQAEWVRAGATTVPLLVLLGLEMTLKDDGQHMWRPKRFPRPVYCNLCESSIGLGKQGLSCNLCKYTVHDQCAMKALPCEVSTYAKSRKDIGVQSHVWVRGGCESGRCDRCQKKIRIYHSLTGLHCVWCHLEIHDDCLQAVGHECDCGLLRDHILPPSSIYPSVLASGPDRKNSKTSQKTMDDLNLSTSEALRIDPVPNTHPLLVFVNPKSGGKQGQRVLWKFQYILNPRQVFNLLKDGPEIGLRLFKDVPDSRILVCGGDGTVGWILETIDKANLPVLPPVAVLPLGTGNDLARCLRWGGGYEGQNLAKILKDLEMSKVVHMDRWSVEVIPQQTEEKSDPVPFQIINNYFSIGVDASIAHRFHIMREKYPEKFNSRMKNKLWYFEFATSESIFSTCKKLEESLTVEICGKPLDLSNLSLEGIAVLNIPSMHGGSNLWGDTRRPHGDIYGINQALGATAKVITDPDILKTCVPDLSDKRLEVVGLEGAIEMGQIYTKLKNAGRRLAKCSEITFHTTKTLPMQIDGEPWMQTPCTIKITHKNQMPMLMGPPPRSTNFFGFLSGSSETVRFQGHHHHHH

human DGKζ = biological target: T2, human DGKζ (Homo sapiens, UniProt Q13574); assay: DGKζ LIPGLO assay (extruded liposome substrate), in vitro DGK inhibition; format: biochemical; settings: read-out: DGKz LIPGLO IC50
T2 construct: TVMV protease cleavage site (C); Hexa-His (C); made in house; host or cells: Sf9 insect cells (baculovirus, Bac-to-Bac)
T2 sequence (Q13574 with tags, fused parts or gaps isoform Q13574-4): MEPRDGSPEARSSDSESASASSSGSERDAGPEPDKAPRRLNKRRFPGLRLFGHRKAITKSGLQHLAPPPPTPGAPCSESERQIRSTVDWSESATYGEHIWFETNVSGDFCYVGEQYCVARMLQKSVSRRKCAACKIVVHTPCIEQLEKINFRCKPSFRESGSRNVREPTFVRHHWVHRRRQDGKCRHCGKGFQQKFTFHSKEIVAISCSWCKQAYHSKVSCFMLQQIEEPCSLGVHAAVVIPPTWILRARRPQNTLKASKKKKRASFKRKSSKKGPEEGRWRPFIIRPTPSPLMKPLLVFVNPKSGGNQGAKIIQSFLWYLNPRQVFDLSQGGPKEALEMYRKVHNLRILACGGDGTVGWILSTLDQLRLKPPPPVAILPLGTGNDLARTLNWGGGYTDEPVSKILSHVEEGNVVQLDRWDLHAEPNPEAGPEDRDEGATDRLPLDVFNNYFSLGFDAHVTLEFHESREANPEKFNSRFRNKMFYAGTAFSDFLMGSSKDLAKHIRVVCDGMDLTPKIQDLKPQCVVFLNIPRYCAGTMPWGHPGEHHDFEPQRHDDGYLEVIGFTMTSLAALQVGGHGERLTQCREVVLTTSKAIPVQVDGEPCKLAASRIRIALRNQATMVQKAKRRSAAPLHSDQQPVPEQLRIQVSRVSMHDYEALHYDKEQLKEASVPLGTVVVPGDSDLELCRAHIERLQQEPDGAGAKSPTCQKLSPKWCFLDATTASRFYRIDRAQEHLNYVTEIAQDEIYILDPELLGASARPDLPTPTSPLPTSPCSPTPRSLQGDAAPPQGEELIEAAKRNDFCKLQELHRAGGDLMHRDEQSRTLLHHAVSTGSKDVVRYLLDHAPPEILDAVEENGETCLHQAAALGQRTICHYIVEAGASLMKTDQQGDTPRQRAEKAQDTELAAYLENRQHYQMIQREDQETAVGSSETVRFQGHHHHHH

SMILES | IC50 (human DGKα; liposome (LIPGLO) assay) [µM] | IC50 (human DGKζ; liposome (LIPGLO) assay) [µM] | IC50 (human DGKα; DGKα liposome (LIPGLO) assay) [µM] | IC50 (human DGKζ; DGKζ liposome (LIPGLO) assay) [µM]
CCOC[C@@H]1CN(c2cc(=O)n(C)c3ccc(C#N)nc23)[C@@H](C)CN1C(C)c1ccc(OC(F)(F)F)cc1 (single isomer, unassigned) [Example 1398] | 5.5 | 1.6 |  | 
C[C@@H]1CN(c2c(C#N)c(=O)n(C)c3ccc(C#N)nc23)CCN1C(c1ccc(Cl)cc1)c1ccc(C#N)cc1 (single isomer, unassigned) [Example 873] |  |  | 2.6 | 7.2
C[C@@H]1CN(c2cc(=O)n(C)c3ccc(C#N)nc23)[C@@H](C)CN1Cc1ccc(OC(F)(F)F)cc1F (single isomer, unassigned) [Example 624] | 0.66 | 24 |  | 
CC[C@@H]1CN(c2cc(=O)n(C)c3ccc(C#N)nc23)[C@@H](C)CN1C(C)c1ccc(C(F)(F)F)cc1 (single isomer, unassigned) [Example 1094] | 0.46 | 2.1 |  | 
CC(c1cccc(OC(F)F)c1)N1C[C@H](C)N(c2cc(=O)n(C)c3ccc(C#N)nc23)C[C@H]1C (single isomer, unassigned) [Example 1272] | 5 | 0.66 |  | 
C[C@@H]1CN(c2c(C#N)c(=O)n(C)c3ccc(Br)nc23)CCN1C(c1ccc(Cl)cc1)c1ccc(Cl)cc1 [Example 102, (R)-4-(4-(bis(4-chlorophenyl)methyl)-3-methylpiperazin-1-yl)-6-bromo-1-methyl-2-oxo-1,2-dihydro-1,5-naphthyridine-3-carbonitrile] | 2.9 | 8.3 |  | 
C[C@@H]1CN(c2cc(=O)n(C)c3ccc(C#N)nc23)[C@@H](C)CN1C(c1cccc(F)c1)c1ccccn1 (single isomer, unassigned) [Example 374] | 0.57 | 3.8 |  | 
C[C@H]1CN(C(c2ccc(F)cc2)c2ccc(F)cc2)[C@H](CO)CN1c1cc(=O)n(C)c2ccc(C#N)nc12 [Example 1151] | 9.6 | 22 |  | 
C[C@@H]1CN(c2c(C#N)c(=O)n(C)c3ccc(C#N)nc23)CCN1C(c1ccc(Cl)cc1)c1ccc(F)cn1 (single isomer, unassigned) [Example 900] |  |  | 2.6 | 0.8
Cn1c(=O)cc(N2CC(C3CC3)N(C(c3ccc(F)cc3)c3ccc(F)cc3)CC2C2CC2)c2nc(C#N)ccc21 (single isomer, unassigned) [Example 152, 8-(4-(bis(4-fluorophenyl)methyl)-2,5-dicyclopropylpiperazin-1-yl)-5-methyl-6-oxo-5,6-dihydro-1,5-naphthyridine-2-carbonitrile] | 7.7 | 240 |  | 

Continued, values first:

IC50 (human DGKα; liposome (LIPGLO) assay) [µM] | IC50 (human DGKζ; liposome (LIPGLO) assay) [µM] | IC50 (human DGKα; DGKα liposome (LIPGLO) assay) [µM] | IC50 (human DGKζ; DGKζ liposome (LIPGLO) assay) [µM] | SMILES
36 | 240 |  |  | CC(C)[C@H]1CN(C(c2ccc(F)cc2)c2ccc(F)cc2)[C@@H](C)CN1c1cc(=O)n(C)c2ccc(C#N)nc12 [Example 125, 8-((2S,5S)-4-(bis(4-fluorophenyl)methyl)-2-isopropyl-5-methylpiperazin-1-yl)-5-methyl-6-oxo-5,6-dihydro-1,5-naphthyridine-2-carbonitrile]
9 | 23 |  |  | Cn1c(=O)cc(N2CCN(C(c3ccc(F)cc3)c3ccc(F)cc3)CC2C#N)c2nc(C#N)ccc21 (stereo not drawn) [Example 145, 8-(4-(bis(4-fluorophenyl)methyl)-2-cyanopiperazin-1-yl)-5-methyl-6-oxo-5,6-dihydro-1,5-naphthyridine-2-carbonitrile]
 |  | 18 | 14 | Cc1cc(C(c2ccc(F)cc2)N2C[C@H](C)N(c3c(C#N)c(=O)n(C)c4ccc(C#N)nc34)C[C@H]2C)no1 (single isomer, unassigned) [Example 865]
7.6 | 1.4 |  |  | CC(c1ccc(OC(F)(F)F)cc1)N1C[C@@H](C)N(c2cc(=O)n(C)c3ccc(C#N)nc23)C[C@@H]1CO (single isomer, unassigned) [Example 1180]
4.2 | 1.1 |  |  | Cc1nc2c(C(C)N3C[C@H](C)N(c4cc(=O)n(C)c5ccc(C#N)nc45)C[C@H]3C)cccc2o1 (single isomer, unassigned) [Example 1261]
